Legend:
SH-SY5Y cells = test: Neurite outgrowth; type: cell-based, human; settings: 5 days; for fold induction at 0.01 µM: Homo sapiens, SH-SY5Y, 120 h, read-out: fold increase in neurite outgrowth; for induction of neurite outgrowth compared with ATRA: 10 nM
Protocol: Following the characterization of retinoids for their genomic and nongenomic activities, the ability of retinoids to differentiate and induce neurite outgrowth in the neuroblastoma cell line, SH-SY5Y cells, was examined (Figure ). Neurite outgrowth can be induced in this cell line by ATRA at 10 μM.
SH-SY5Y cell line as used in ERK phosphorylation and neurite outgrowth assays described below. The cells were grown in DMEM containing 10% FCS at 37 °C with 5% CO2. The medium was changed three times a week and the cells were passaged at 70% confluence using 0.05% trypsin-EDTA.
SH-SY5Y cells were plated at 10,000 cells/well in 12-well plates containing 16 mm acid-treated/poly L-lysine-coated glass coverslips. After 24 h, retinoids were added to the medium and tested at two different concentrations, 10 μM and 10 nM, with a final DMSO concentration of 0.01 or 0.0001%, respectively. The plates were incubated for 5 days at 5% CO2/37 °C. All retinoid concentrations were tested in triplicate. Cells were fixed using 4% paraformaldehyde and stained for β-III tubulin (1:1000; Sigma). For each neurite outgrowth experiment, 3 coverslips (in 3 wells) were used. ImageJ software with the NeuronJ plugin was used to quantify neurite outgrowth on stained cells in each of the 10 randomly selected images of each coverslip taken using a Nikon Eclipse E400 fluorescence microscope. The average neurite length was calculated for each image by dividing total neurite length by the total number of neurites per image.
(§1) All data are presented as mean ± SEM of three independent experiments with biological triplicates. Statistical analyses were performed in Microsoft Office Excel 2019 or GraphPad Prism 7.0c version (Prism, GraphPad Software, San Diego, CA). Neurite outgrowth data were analyzed by one-way ANOVA with Newman-Keuls multiple comparison test as appropriate; P value <0.05 was considered statistically significant. *P < 0.05, **P < 0.01. Data for X-Gal and ERK1/2 phosphorylation were analyzed using sigmoidal dose–response analysis of log (agonist) versus response curve (stimulation).

[1] = test system: Sil-15 cells containing a RARE driving a lacZ reporter; test: X-Gal-based RA reporter assay (genomic response); type: cell-based; parameters: genomic response Emax (±95% CI): unit not given here; settings: for genomic response Emax (±95% CI) / EC50: Sil-15 reporter cells; for genomic response Emax (±95% CI): absorbance at 650 nm; for genomic E max compared with ATRA / genomic EC50 compared with ATRA: nonoverlapping 95% CI; for EC50: read-out: genomic response EC50 (±95% CI), overnight, 10^–6 to 10^–14 M
From the text: Following chemical design and synthesis, the synthetic retinoid library was screened for genomic and nongenomic biological activities and compared to the response of the endogenous retinoid, ATRA. In these assays, the EC50 value represented the concentration of retinoid that gave half-maximal response (potency), while the E max value represented the maximum response achievable from the retinoid (efficacy).
The transcriptional genomic activity of the retinoids was quantified using Sil-15 cells containing a RARE driving a lacZ reporter. […] Twenty-two of the synthetic retinoids were effective in inducing genomic activity. […] In addition, the retinoids varied in their efficacies.
The Sil-15 cell line was used in the X-gal RA reporter assay described below. The cells were grown in Dulbecco’s modified Eagle’s medium (DMEM) containing 10% fetal bovine serum (FCS) (Invitrogen/Gibco), 0.6% penicillin-streptomycin (Gibco) and 0.8 mg/mL G418 sulfate (Sigma) for selection. They were maintained in a humidified atmosphere containing 5% CO2 at 37 °C. The medium was changed three times a week and the cells were passaged at 70% confluence using 0.05% trypsin-EDTA.
Sil-15 cells are F9 teratocarcinoma cells stably transfected with a plasmid containing the LacZ gene under the control of a DR5-type RA response element (RARE). The reporter cell line was used to detect the transcriptional genomic activity of ATRA and other retinoids by colorimetrically quantifying the insoluble blue product generated by β-galactosidase from X-gal during the assay. The assay was performed by plating 100,000 cells per well in the 0.1% gelatin-coated 96-well plates and leaving them to attach overnight. The ATRA/retinoids dilutions ranging from 10^–6 to 10^–14 M were incubated on the reporter cells overnight at 37 °C, in 5% CO2. A standard curve of ATRA was included in each experiment to ensure the reproducibility of the results between assays performed on different days. All the assays for ATRA as well as the retinoids were quantified in triplicate. Serial dilutions of retinoids were prepared from a stock solution under red/orange light. The stock solutions prepared in DMSO for each retinoid varied depending on the solubility of each compound. Each stock was stored at −20 °C and protected from light. The next day, Sil-15 cells were washed with PBS, fixed with 1% glutaraldehyde and 1 mM MgCl2 solution for 15 min, and developed in X-gal developing solution (0.2% X-Gal, 1 mM MgCl2, 3.3 mM potassium ferricyanide and 3.3 mM potassium ferrocyanide in PBS). The plates were read on an E max microplate reader (Molecular Devices) at 650 nm.
as §1

[2] = 10 nM compound, in comparison to nontreated cells

Row | SMILES | EC50 [1] [nM] | fold induction at 0.01 µM (SH-SY5Y cells; [2]) | genomic response Emax (±95% CI) [1] | genomic E max compared with ATRA [1] | genomic EC50 compared with ATRA [1] | induction of neurite outgrowth compared with ATRA (SH-SY5Y cells) | fold increase in neurite outgrowth (SH-SY5Y cells; [2])
1 | CC1(C)CCC(C)(C)c2cc(C#Cc3ccc(C(=O)O)c(F)c3)ccc21 [Compound 13, 2-Fluoro-4-[2-(5,5,8,8-tetramethyl-5,6,7,8-tetrahydronaphthalen-2-yl)ethynyl]benzoic Acid] | – | 1.9 | 190 (±8.2) | significantly higher E max than ATRA | – | – | –
2 | CC1(C)CCC(C)(C)c2cc(C#Cc3cc(F)c(C(=O)O)c(F)c3)ccc21 [Compound 15, 2,6-Difluoro-4-[2-(5,5,8,8-tetramethyl-5,6,7,8-tetrahydronaphthalen-2-yl)ethynyl]benzoic Acid] | – | 1.7 | 185 (±4.9) | significantly higher E max than ATRA | – | – | –
3 | CC1(C)CCC(C)(C)c2cc(C#Cc3ccc(C(=O)O)cc3Cl)ccc21 [Compound 16, 3-Chloro-4-[2-(5,5,8,8-tetramethyl-5,6,7,8-tetrahydronaphthalen-2-yl)ethynyl]benzoic Acid] | 13.6 | 1.6 | 97.2 (±7.9) | significantly lower E max than ATRA | significantly higher EC50 values than ATRA | – | –
4 | CC1(C)CCC(C)(C)c2cc(C#Cc3ccc(C(=O)O)cn3)ccc21 [Compound 23, 6-[2-(5,5,8,8-Tetramethyl-5,6,7,8-tetrahydronaphthalen-2-yl)ethynyl]pyridine-3-carboxylic Acid] | – | 1.9 | 210 (±8.45) | significantly higher E max than ATRA | – | significantly induced neurite outgrowth compared to ATRA | –
5 | CC1(C)CCC(C)(C)c2cc(C#Cc3cnc(C(=O)O)cn3)ccc21 [Compound 25, 5-[2-(5,5,8,8-Tetramethyl-5,6,7,8-tetrahydronaphthalen-2-yl)ethynyl]pyrazine-2-carboxylic Acid] | 3.98 | – | 174 (±8.25) | – | significantly higher EC50 values than ATRA | induced neurite outgrowth but not significantly compared to ATRA | –
6 | Cc1cc2c(cc1C#Cc1ccc(C(=O)O)cn1)C(C)(C)CCC2(C)C [Compound 26, 6-[2-(3,5,5,8,8-Pentamethyl-5,6,7,8-tetrahydronaphthalen-2-yl)ethynyl]pyridine-3-carboxylic Acid] | 0.427 | – | 177 (±6.65) | – | significantly lower EC50 than ATRA | unable to induce neurite outgrowth | no response
7 | COc1cc2c(cc1C#Cc1ncc(C(=O)O)cn1)C(C)(C)CCC2(C)C [Compound 29, 2-[2-(3-Methoxy-5,5,8,8-tetramethyl-5,6,7,8-tetrahydronaphthalen-2-yl)ethynyl]pyrimidine-5-carboxylic Acid] | 603 | – | 266 (±110) | – | significantly higher EC50 values than ATRA | induced neurite outgrowth but not significantly compared to ATRA | –

The next lines start with results.

Row | EC50 [1] [nM] | SMILES | fold induction at 0.01 µM (SH-SY5Y cells; [2]) | genomic response Emax (±95% CI) [1] | genomic E max compared with ATRA [1] | genomic EC50 compared with ATRA [1] | induction of neurite outgrowth compared with ATRA (SH-SY5Y cells) | fold increase in neurite outgrowth (SH-SY5Y cells; [2])
8 | 0.0581 | CC1(C)CCC(C)(C)c2cc(C#Cc3ccc(C(=O)O)cc3F)ccc21 [Compound 14, 3-Fluoro-4-[2-(5,5,8,8-tetramethyl-5,6,7,8-tetrahydronaphthalen-2-yl)ethynyl]benzoic Acid] | 2.1 | 149 (±14.9) | significantly lower E max than ATRA | – | – | –
9 | 0.134 | Cc1cc2c(cc1C#Cc1ccc(C(=O)O)c(F)c1)C(C)(C)CCC2(C)C [Compound 17, 2-Fluoro-4-[2-(3,5,5,8,8-pentamethyl-5,6,7,8-tetrahydronaphthalen-2-yl)ethynyl]benzoic Acid] | – | 170 (±9.35) | – | significantly lower EC50 than ATRA | induced neurite outgrowth but not significantly compared to ATRA | –
10 | 1.38 | Cc1cc2c(cc1C#Cc1ccc(C(=O)O)cc1F)C(C)(C)CCC2(C)C [Compound 18, 3-Fluoro-4-[2-(3,5,5,8,8-pentamethyl-5,6,7,8-tetrahydronaphthalen-2-yl)ethynyl]benzoic Acid] | – | 140 (±12.1) | significantly lower E max than ATRA | – | induced neurite outgrowth but not significantly compared to ATRA | –
11 | 0.27 | Cc1cc2c(cc1C#Cc1cc(F)c(C(=O)O)c(F)c1)C(C)(C)CCC2(C)C [Compound 19, 2,6-Difluoro-4-[2-(3,5,5,8,8-pentamethyl-5,6,7,8-tetrahydronaphthalen-2-yl)ethynyl]benzoic Acid] | 1.6 | – | – | significantly lower EC50 than ATRA | significantly induced neurite outgrowth compared to ATRA | –
12 | 0.146 | COc1cc2c(cc1C#Cc1cc(F)c(C(=O)O)c(F)c1)C(C)(C)CCC2(C)C [Compound 22, 2,6-Difluoro-4-[2-(3-methoxy-5,5,8,8-tetramethyl-5,6,7,8-tetrahydronaphthalen-2-yl)ethynyl]benzoic Acid] | – | 155 (±10.6) | significantly lower E max than ATRA | – | induced neurite outgrowth but not significantly compared to ATRA | –
13 | 0.146 | CC1(C)CCC(C)(C)c2cc(C#Cc3ccc(C(=O)O)nc3)ccc21 [Compound 24, 5-[2-(5,5,8,8-Tetramethyl-5,6,7,8-tetrahydronaphthalen-2-yl)ethynyl]pyridine-2-carboxylic Acid] | 2.2 | 207 (±19.5) | significantly higher E max than ATRA | – | significantly induced neurite outgrowth compared to ATRA | –
14 | 3.16 | COc1cc2c(cc1C#Cc1ccc(C(=O)O)cn1)C(C)(C)CCC2(C)C [Compound 27, 6-[2-(3-Methoxy-5,5,8,8-tetramethyl-5,6,7,8-tetrahydronaphthalen-2-yl)ethynyl]pyridine-3-carboxylic Acid] | 1.7 | 176 (±8.55) | – | significantly higher EC50 values than ATRA | – | –
15 | 0.826 | Cc1cc2c(cc1C#Cc1ncc(C(=O)O)cn1)C(C)(C)CCC2(C)C [Compound 28, 2-[2-(3,5,5,8,8-Pentamethyl-5,6,7,8-tetrahydronaphthalen-2-yl)ethynyl]pyrimidine-5-carboxylic Acid] | – | 192 (±12.7) | – | – | induced neurite outgrowth but not significantly compared to ATRA | –
